Tests used:
[1] = biological target: Tyrosine-protein kinase receptor TYRO3 (Homo sapiens) (UniProt Q06418); settings: Compound concentration 100.0 nM
[2] = biological target: Casein kinase II subunit alpha' (Homo sapiens) (UniProt P19784); settings: Compound concentration 100.0 nM
[3] = biological target: Cyclin-dependent kinase-like 5 (Homo sapiens) (UniProt O76039); settings: Compound concentration 100.0 nM
[4] = biological target: Protein kinase C eta type (Homo sapiens) (UniProt P24723); settings: Compound concentration 100.0 nM
Chain of Protein kinase C eta type (Homo sapiens) (P24723 whole entry): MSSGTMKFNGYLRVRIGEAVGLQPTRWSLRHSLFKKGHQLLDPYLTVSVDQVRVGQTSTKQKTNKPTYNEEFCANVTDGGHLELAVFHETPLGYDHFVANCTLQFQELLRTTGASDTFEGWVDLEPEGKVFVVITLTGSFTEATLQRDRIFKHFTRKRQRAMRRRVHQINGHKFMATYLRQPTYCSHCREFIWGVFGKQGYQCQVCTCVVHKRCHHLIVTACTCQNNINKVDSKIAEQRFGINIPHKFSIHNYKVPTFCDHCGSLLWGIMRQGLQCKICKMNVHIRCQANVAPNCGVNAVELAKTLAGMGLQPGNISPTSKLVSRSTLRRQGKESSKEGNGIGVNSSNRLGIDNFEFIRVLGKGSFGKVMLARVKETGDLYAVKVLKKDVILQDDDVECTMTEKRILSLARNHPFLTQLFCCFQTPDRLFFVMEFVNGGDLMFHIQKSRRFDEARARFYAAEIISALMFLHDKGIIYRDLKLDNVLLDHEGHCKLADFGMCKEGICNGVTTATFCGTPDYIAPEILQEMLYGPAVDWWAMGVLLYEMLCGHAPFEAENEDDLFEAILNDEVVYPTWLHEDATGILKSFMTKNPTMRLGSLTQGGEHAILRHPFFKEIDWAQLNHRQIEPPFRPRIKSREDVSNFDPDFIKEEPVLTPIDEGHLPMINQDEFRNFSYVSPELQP

[5] = biological target: 5-hydroxytryptamine receptor 1D (Homo sapiens) (UniProt P28221); settings: Compound concentration 10.0 uM
[6] = biological target: Muscle, skeletal receptor tyrosine-protein kinase (Homo sapiens) (UniProt O15146); settings: Compound concentration 100.0 nM
[7] = biological target: Non-receptor tyrosine-protein kinase TNK1 (Homo sapiens) (UniProt Q13470); settings: Compound concentration 100.0 nM
[8] = biological target: Glycogen synthase kinase-3 alpha (Homo sapiens) (UniProt P49840); settings: Compound concentration 100.0 nM
[9] = system: Receptor-type tyrosine-protein kinase FLT3 (Homo sapiens), P36888 [UNDEFINED MUTATION]; settings: Compound concentration 100.0 nM
[10] = biological target: Muscarinic acetylcholine receptor M4 (Homo sapiens) (UniProt P08173); settings: Compound concentration 10.0 uM
[11] = biological target: Interleukin-1 receptor-associated kinase 3 (Homo sapiens) (UniProt Q9Y616); settings: Compound concentration 100.0 nM
Chain of Interleukin-1 receptor-associated kinase 3 (Homo sapiens) (Q9Y616 whole entry): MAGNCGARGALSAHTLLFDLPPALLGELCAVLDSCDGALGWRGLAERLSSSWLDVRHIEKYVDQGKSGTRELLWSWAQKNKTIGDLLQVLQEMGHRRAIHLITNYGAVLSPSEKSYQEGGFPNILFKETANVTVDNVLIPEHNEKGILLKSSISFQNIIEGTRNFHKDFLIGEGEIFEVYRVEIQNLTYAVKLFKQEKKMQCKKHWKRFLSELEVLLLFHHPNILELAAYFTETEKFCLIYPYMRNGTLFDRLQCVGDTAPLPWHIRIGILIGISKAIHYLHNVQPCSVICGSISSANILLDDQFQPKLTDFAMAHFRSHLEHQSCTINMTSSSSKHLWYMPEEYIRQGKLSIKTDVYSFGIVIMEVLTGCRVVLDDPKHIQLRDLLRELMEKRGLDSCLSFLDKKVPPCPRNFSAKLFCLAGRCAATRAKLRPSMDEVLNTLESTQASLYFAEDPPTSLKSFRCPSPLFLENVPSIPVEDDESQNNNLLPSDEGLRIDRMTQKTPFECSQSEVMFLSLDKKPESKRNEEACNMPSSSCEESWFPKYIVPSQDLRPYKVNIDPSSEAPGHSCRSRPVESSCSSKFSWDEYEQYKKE

[12] = biological target: Activin receptor type-2B (Homo sapiens) (UniProt Q13705); settings: Compound concentration 100.0 nM
[13] = biological target: Serine/threonine-protein kinase 3 (Homo sapiens) (UniProt Q13188); settings: Compound concentration 100.0 nM
[14] = biological target: Epithelial discoidin domain-containing receptor 1 (Homo sapiens) (UniProt Q08345); settings: Compound concentration 100.0 nM
[15] = biological target: Rho-associated protein kinase 2 (Homo sapiens) (UniProt O75116); settings: Compound concentration 100.0 nM
[16] = biological target: Proto-oncogene tyrosine-protein kinase receptor Ret (Homo sapiens) (UniProt P07949); settings: Compound concentration 100.0 nM
[17] = system: Tyrosine-protein kinase ABL1 (Homo sapiens), P00519 [H396P]; settings: Compound concentration 100.0 nM
[18] = biological target: Tyrosine-protein kinase Lck (Homo sapiens) (UniProt P06239); settings: Compound concentration 100.0 nM
[19] = biological target: Alpha-2B adrenergic receptor (Homo sapiens) (UniProt P18089); settings: Compound concentration 10.0 uM
[20] = biological target: Myosin-IIIb (Homo sapiens) (UniProt Q8WXR4); settings: Compound concentration 100.0 nM
[21] = biological target: Dual specificity protein kinase CLK3 (Homo sapiens) (UniProt P49761); settings: Compound concentration 100.0 nM
Chain of Dual specificity protein kinase CLK3 (Homo sapiens) (P49761 whole entry, looked up): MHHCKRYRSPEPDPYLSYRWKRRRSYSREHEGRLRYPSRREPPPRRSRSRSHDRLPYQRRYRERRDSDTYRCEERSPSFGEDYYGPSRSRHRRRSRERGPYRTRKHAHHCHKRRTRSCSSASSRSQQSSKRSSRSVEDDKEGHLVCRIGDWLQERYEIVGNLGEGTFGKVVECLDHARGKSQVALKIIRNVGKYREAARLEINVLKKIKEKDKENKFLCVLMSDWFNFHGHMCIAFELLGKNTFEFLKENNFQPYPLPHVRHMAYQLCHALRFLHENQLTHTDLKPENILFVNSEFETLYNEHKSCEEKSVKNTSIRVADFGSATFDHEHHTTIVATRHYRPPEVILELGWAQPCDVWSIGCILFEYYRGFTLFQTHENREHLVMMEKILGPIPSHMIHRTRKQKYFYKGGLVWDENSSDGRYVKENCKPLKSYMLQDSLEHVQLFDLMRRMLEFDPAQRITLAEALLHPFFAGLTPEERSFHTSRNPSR

[22] = biological target: Protein kinase C epsilon type (Homo sapiens) (UniProt Q02156); settings: Compound concentration 100.0 nM
[23] = biological target: Casein kinase II subunit alpha (Homo sapiens) (UniProt P68400); settings: Compound concentration 100.0 nM
[24] = biological target: Calcium/calmodulin-dependent protein kinase type 1B (Homo sapiens) (UniProt Q6P2M8); settings: Compound concentration 100.0 nM
[25] = biological target: Serine/threonine-protein kinase RIO1 (Homo sapiens) (UniProt Q9BRS2); settings: Compound concentration 100.0 nM
[26] = biological target: 5-hydroxytryptamine receptor 5A (Homo sapiens) (UniProt P47898); settings: Compound concentration 10.0 uM
[27] = biological target: Serine/threonine-protein kinase MRCK alpha (Homo sapiens) (UniProt Q5VT25); settings: Compound concentration 100.0 nM
[28] = biological target: Calcium/calmodulin-dependent protein kinase type II subunit gamma (Homo sapiens) (UniProt Q13555); settings: Compound concentration 100.0 nM
[29] = biological target: Ephrin type-A receptor 6 (Homo sapiens) (UniProt Q9UF33); settings: Compound concentration 100.0 nM
[30] = biological target: Mitogen-activated protein kinase kinase kinase 13 (Homo sapiens) (UniProt O43283); settings: Compound concentration 100.0 nM
Chain of Mitogen-activated protein kinase kinase kinase 13 (Homo sapiens) (O43283 whole entry): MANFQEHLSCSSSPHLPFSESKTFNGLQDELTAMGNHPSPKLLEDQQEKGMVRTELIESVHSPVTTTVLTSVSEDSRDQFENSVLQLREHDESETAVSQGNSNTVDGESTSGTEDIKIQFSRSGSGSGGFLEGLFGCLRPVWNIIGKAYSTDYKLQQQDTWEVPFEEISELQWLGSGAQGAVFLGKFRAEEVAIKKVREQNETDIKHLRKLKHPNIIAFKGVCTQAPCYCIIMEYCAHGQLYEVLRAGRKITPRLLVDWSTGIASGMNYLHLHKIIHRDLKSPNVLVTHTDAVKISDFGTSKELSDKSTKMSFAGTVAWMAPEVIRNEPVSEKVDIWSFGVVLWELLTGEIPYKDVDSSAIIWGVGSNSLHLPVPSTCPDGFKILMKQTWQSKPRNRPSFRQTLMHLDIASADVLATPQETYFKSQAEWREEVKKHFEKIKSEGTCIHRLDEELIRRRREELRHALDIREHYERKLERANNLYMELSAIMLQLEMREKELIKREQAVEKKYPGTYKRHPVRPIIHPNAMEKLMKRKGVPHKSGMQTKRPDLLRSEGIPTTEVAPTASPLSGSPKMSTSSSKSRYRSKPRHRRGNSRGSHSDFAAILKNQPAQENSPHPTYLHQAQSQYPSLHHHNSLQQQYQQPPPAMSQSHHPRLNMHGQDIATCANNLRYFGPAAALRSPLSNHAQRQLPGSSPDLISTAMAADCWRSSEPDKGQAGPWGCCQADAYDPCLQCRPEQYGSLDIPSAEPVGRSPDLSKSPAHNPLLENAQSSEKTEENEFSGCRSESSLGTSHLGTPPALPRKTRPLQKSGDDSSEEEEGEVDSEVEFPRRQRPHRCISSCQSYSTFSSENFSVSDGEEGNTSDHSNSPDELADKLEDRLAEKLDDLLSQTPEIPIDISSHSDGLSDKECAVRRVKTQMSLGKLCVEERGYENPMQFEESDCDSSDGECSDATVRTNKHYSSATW

[31] = biological target: Tyrosine-protein kinase Mer (Homo sapiens) (UniProt Q12866); settings: Compound concentration 100.0 nM
[32] = biological target: Serine/threonine-protein kinase 36 (Homo sapiens) (UniProt Q9NRP7); settings: Compound concentration 100.0 nM
[33] = biological target: Mitogen-activated protein kinase 12 (Homo sapiens) (UniProt P53778); settings: Compound concentration 100.0 nM
[34] = biological target: G protein-coupled receptor kinase 4 (Homo sapiens) (UniProt P32298); settings: Compound concentration 100.0 nM
[35] = biological target: Receptor-interacting serine/threonine-protein kinase 4 (Homo sapiens) (UniProt P57078); settings: Compound concentration 100.0 nM
[36] = biological target: TRAF2 and NCK-interacting protein kinase (Homo sapiens) (UniProt Q9UKE5); settings: Compound concentration 100.0 nM
[37] = biological target: STE20/SPS1-related proline-alanine-rich protein kinase (Homo sapiens) (UniProt Q9UEW8); settings: Compound concentration 100.0 nM
[38] = biological target: Phosphatidylinositol 4,5-bisphosphate 3-kinase catalytic subunit alpha isoform (Homo sapiens) (UniProt P42336); settings: Compound concentration 100.0 nM
[39] = biological target: Phosphatidylinositol 5-phosphate 4-kinase type-2 gamma (Homo sapiens) (UniProt Q8TBX8); settings: Compound concentration 100.0 nM
[40] = biological target: Discoidin domain-containing receptor 2 (Homo sapiens) (UniProt Q16832); settings: Compound concentration 100.0 nM
Chain of Discoidin domain-containing receptor 2 (Homo sapiens) (Q16832 whole entry, the tested form may be a part, canonical isoform): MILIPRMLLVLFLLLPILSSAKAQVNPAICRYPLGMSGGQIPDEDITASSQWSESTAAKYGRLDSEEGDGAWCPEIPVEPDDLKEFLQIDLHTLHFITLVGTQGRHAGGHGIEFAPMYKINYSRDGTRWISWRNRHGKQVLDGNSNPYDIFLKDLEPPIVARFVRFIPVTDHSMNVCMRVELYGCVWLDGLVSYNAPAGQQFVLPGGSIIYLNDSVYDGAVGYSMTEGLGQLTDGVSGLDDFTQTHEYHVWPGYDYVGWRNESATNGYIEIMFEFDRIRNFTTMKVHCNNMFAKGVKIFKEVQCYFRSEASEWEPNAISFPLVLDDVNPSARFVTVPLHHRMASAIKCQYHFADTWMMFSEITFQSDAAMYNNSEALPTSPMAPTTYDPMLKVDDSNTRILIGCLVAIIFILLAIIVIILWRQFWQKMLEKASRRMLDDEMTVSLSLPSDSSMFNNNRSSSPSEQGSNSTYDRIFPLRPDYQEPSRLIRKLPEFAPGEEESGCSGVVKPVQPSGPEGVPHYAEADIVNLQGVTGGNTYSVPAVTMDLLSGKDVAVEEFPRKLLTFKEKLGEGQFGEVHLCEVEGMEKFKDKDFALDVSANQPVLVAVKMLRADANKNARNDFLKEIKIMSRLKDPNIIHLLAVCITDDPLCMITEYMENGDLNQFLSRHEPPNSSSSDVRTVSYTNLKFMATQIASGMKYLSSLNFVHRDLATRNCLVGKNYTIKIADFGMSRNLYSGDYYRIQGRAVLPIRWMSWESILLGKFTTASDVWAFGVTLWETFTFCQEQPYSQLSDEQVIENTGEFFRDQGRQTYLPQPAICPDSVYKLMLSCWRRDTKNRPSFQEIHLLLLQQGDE

[41] = system: Phosphatidylinositol 4,5-bisphosphate 3-kinase catalytic subunit alpha isoform (Homo sapiens), P42336 [I800L]; settings: Compound concentration 100.0 nM
[42] = biological target: STE20-like serine/threonine-protein kinase (Homo sapiens) (UniProt Q9H2G2); settings: Compound concentration 100.0 nM
Chain of STE20-like serine/threonine-protein kinase (Homo sapiens) (Q9H2G2 whole entry, looked up): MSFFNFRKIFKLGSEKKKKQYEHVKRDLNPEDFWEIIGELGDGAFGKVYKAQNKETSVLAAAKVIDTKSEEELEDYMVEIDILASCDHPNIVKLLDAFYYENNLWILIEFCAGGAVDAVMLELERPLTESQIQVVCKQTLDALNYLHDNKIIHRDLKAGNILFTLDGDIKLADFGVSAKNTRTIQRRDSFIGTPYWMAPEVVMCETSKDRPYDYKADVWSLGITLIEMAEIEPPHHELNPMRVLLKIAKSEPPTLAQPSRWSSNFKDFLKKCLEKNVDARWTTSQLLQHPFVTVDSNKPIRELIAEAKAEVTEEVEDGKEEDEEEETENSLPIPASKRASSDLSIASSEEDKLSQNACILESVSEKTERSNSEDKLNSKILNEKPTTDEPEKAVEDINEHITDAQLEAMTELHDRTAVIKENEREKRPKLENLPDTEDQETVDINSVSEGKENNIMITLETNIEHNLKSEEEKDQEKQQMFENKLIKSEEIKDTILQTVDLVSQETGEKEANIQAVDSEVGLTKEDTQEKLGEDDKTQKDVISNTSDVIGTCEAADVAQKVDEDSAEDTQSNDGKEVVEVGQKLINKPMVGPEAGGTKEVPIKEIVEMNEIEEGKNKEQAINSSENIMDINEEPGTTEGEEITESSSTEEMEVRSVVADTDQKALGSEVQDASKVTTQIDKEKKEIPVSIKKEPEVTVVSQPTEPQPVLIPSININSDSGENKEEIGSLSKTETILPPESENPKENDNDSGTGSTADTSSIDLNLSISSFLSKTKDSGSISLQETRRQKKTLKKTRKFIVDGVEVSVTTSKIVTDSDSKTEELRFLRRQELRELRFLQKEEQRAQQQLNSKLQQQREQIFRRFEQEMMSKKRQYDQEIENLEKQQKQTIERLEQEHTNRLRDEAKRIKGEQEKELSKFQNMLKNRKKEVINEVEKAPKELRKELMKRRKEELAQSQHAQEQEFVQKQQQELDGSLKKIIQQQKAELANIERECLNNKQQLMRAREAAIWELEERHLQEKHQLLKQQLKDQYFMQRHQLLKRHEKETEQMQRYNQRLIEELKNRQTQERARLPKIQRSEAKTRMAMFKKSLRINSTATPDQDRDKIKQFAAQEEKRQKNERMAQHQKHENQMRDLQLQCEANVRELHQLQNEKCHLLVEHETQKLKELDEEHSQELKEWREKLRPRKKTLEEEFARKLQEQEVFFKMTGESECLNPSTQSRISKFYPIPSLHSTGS

[43] = biological target: Serine/threonine-protein kinase LATS2 (Homo sapiens) (UniProt Q9NRM7); settings: Compound concentration 100.0 nM
[44] = system: Epidermal growth factor receptor (Homo sapiens), P00533 [L858R]; settings: Compound concentration 100.0 nM
[45] = biological target: Mitogen-activated protein kinase kinase kinase 10 (Homo sapiens) (UniProt Q02779); settings: Compound concentration 100.0 nM

Nc1c(C(=O)NCc2ccc(C(=O)NCCCC3CCCCC3)cc2)cnn1-c1ccccc1 [SR-318]
inactive: residual activity [1] 100% | residual activity [2] 100% | residual activity [3] 100% | residual activity [4] 98% | inhibition [5] 27.6% | residual activity [6] 97% | residual activity [7] 91% | residual activity [8] 100% | residual activity [9] 73% | inhibition [10] -4.14% | residual activity [11] 94% | residual activity [12] 100% | residual activity [13] 100% | residual activity [15] 100% | residual activity [16] 89% | residual activity [17] 80% | residual activity [18] 82% | inhibition [19] 17.7% | residual activity [20] 100% | residual activity [21] 95% | residual activity [22] 100% | residual activity [23] 70% | residual activity [24] 100% | residual activity [25] 95% | inhibition [26] 9.6% | residual activity [27] 100% | residual activity [28] 100% | residual activity [29] 94% | residual activity [30] 100% | residual activity [31] 100% | residual activity [32] 100% | residual activity [33] 100% | residual activity [34] 100% | residual activity [35] 100% | residual activity [36] 100% | residual activity [37] 96% | residual activity [38] 100% | residual activity [39] 100% | residual activity [40] 56% | residual activity [41] 96% | residual activity [42] 80% | residual activity [43] 100% | residual activity [44] 100% | residual activity [45] 85%
active: residual activity [14] 43%

O=C(NCCCC1CCCCC1)c1ccc(CNC(=O)c2cnn(-c3ccccc3)c2C(F)(F)F)cc1 [SR-321]
inactive: residual activity [1] 100% | residual activity [2] 88% | residual activity [3] 100% | residual activity [4] 100% | inhibition [5] -8.35% | residual activity [6] 100% | residual activity [7] 88% | residual activity [8] 100% | residual activity [9] 100% | inhibition [10] 20.1% | residual activity [11] 100% | residual activity [12] 96% | residual activity [13] 100% | residual activity [14] 100% | residual activity [15] 100% | residual activity [16] 89% | residual activity [17] 98% | residual activity [18] 100% | inhibition [19] 1.13% | residual activity [20] 100% | residual activity [21] 100% | residual activity [22] 88% | residual activity [23] 94% | residual activity [24] 79% | residual activity [25] 100% | inhibition [26] 17% | residual activity [27] 100% | residual activity [28] 100% | residual activity [29] 88% | residual activity [30] 100% | residual activity [31] 100% | residual activity [32] 100% | residual activity [33] 100% | residual activity [34] 100% | residual activity [35] 58% | residual activity [36] 100% | residual activity [37] 100% | residual activity [38] 100% | residual activity [39] 99% | residual activity [40] 100% | residual activity [41] 70% | residual activity [42] 100% | residual activity [43] 97% | residual activity [44] 100% | residual activity [45] 87%
